According to PubChem BioAssay AID248 (DTP/NCI, 2004):
Values joined by “and” are separate entries in the source; they are usually repeats but may differ in a detail not shown here. Equal entries are not always repeated. Inconclusive results and toxic doses are left out. Rule as the data show it: active = T/C of 150% or more; inactive = T/C below 125%.

System: L1210 leukemia ip in BDF1 mice, survival T/C
Assay: NCI In Vivo Anticancer Drug Screen. Data for tumor model L1210 Leukemia (intraperitoneal) in B6D2F1 (BDF1) mice
Conditions: endpoint: mean survival time, higher = longer survival
In short: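 Mice bearing the transplanted tumor received compound or vehicle. Survival of the treated group was divided by that of the vehicle-treated control group to give the ratio.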

[1] = dose: 100.0 mg/kg/injection, schedule: Q04DX002 (ip), vehicle: Klucel (hydroxypropylcellulose) (HPC)
[2] = dose: 200.0 mg/kg/injection, schedule: Q04DX002 (ip), vehicle: Klucel (hydroxypropylcellulose) (HPC)
[3] = dose: 400.0 mg/kg/injection, schedule: Q04DX002 (ip), vehicle: Klucel (hydroxypropylcellulose) (HPC)
[4] = dose: 50.0 mg/kg/injection, schedule: Q01DX001 (ip), vehicle: saline
[5] = dose: 100.0 mg/kg/injection, schedule: Q01DX001 (ip), vehicle: saline
[6] = dose: 200.0 mg/kg/injection, schedule: Q01DX001 (ip), vehicle: saline
[7] = dose: 400.0 mg/kg/injection, schedule: Q01DX001 (ip), vehicle: saline
[8] = dose: 50.0 mg/kg/injection, schedule: Q01DX009 (ip), vehicle: saline with Tween-80
[9] = dose: 100.0 mg/kg/injection, schedule: Q04DX003 (ip), vehicle: saline with Tween-80
[10] = dose: 200.0 mg/kg/injection, schedule: Q01DX009 (ip), vehicle: saline with Tween-80
[11] = dose: 200.0 mg/kg/injection, schedule: Q04DX003 (ip), vehicle: saline with Tween-80
[12] = dose: 400.0 mg/kg/injection, schedule: Q01DX009 (ip), vehicle: saline with Tween-80
[13] = dose: 400.0 mg/kg/injection, schedule: Q04DX003 (ip), vehicle: saline with Tween-80
[14] = dose: 25.0 mg/kg/injection, schedule: Q04DX002 (ip), vehicle: saline with Tween-80
[15] = dose: 100.0 mg/kg/injection, schedule: Q04DX003 (ip), vehicle: acetone
[16] = dose: 200.0 mg/kg/injection, schedule: Q04DX003 (ip), vehicle: acetone
[17] = dose: 100.0 mg/kg/injection, schedule: Q01DX009 (ip), vehicle: saline with Tween-80
[18] = dose: 100.0 mg/kg/injection, schedule: Q01DX001 (ip), vehicle: carboxymethylcellulose (CMC)
[19] = dose: 200.0 mg/kg/injection, schedule: Q01DX001 (ip), vehicle: carboxymethylcellulose (CMC)
[20] = dose: 100.0 mg/kg/injection, schedule: Q01DX001 (ip), vehicle: saline with Tween-80
[21] = dose: 200.0 mg/kg/injection, schedule: Q01DX001 (ip), vehicle: saline with Tween-80

Measured: T/C

CNC(=S)N(C)c1ccccc1
inactive: [1] 100 % of control | [2] 107 % of control | [3] 104 % of control

COCC(=O)c1ccccc1
inactive: [4] 96 % of control | [5] 98 % of control | [6] 98 % of control | [7] 93 % of control

COc1cccc(NC(=O)CCC(=O)O)c1
inactive: dose: 25.0 mg/kg/injection, schedule: Q01DX009 (ip), vehicle: saline with Tween-80 105 % of control | [8] 100 % of control | dose: 50.0 mg/kg/injection, schedule: Q04DX003 (ip), vehicle: saline with Tween-80 98 % of control | [9] 103 % of control | [10] 88 % of control | [11] 97 % of control | [12] 95 % of control | [13] 103 % of control

C=CC1CCN(CCn2cnc3c(N)ncnc32)CC1
inactive: [9] 97 % of control | [11] 103 % of control | [13] 97 % of control

O=C1C(CO)=C[C@@H](O)[C@H]2O[C@@H]12
inactive: dose: 3.0 mg/kg/injection, schedule: Q01DX009 (ip), vehicle: saline 93 % of control | dose: 6.0 mg/kg/injection, schedule: Q01DX009 (ip), vehicle: saline 93 % of control | dose: 12.0 mg/kg/injection, schedule: Q01DX009 (ip), vehicle: saline 95 % of control | dose: 25.0 mg/kg/injection, schedule: Q01DX001 (ip), vehicle: saline 98 % of control | dose: 25.0 mg/kg/injection, schedule: Q01DX009 (ip), vehicle: saline 98 % of control | [4] 121 % of control | dose: 50.0 mg/kg/injection, schedule: Q01DX009 (ip), vehicle: saline 121 % of control | dose: 75.0 mg/kg/injection, schedule: Q01DX009 (ip), vehicle: saline 102 % of control | [5] 103 % of control and 123 % of control | dose: 150.0 mg/kg/injection, schedule: Q01DX009 (ip), vehicle: saline 109 % of control | [6] 106 % of control | [7] 111 % of control

CN1C(=O)CC(C(=O)c2ccc(N3C(=O)C=CC3=O)cc2)(c2ccccc2)C1=O (stereo not given)
inactive: [14] 102 % of control | dose: 50.0 mg/kg/injection, schedule: Q04DX002 (ip), vehicle: saline with Tween-80 98 % of control

CC1C(C)C23CCC12C(=O)C(O)C12CCC1(C(O)C3=O)C(C)C2C (stereo not given)
inactive: [4] 100 % of control | [5] 109 % of control | [6] 111 % of control

O=C1C=Cc2ccc3c4c(ccc1c24)C=CC3=O
inactive: [15] 98 % of control | [16] 91 % of control

O=C(NCCl)Nc1ccccc1
inactive: dose: 25.0 mg/kg/injection, schedule: Q04DX002 (ip), vehicle: saline 106 % of control | dose: 50.0 mg/kg/injection, schedule: Q04DX002 (ip), vehicle: saline 106 % of control | dose: 100.0 mg/kg/injection, schedule: Q04DX002 (ip), vehicle: saline + alcohol 100 % of control | dose: 100.0 mg/kg/injection, schedule: Q04DX002 (ip), vehicle: saline 100 % of control

COc1nn(O)cc(C)c1=N
inactive: [14] 92 % of control | dose: 100.0 mg/kg/injection, schedule: Q04DX002 (ip), vehicle: saline with Tween-80 96 % of control

CN(N)c1cc(=O)[nH]c(N)n1
inactive: [1] 101 % of control | [2] 97 % of control | [3] 92 % of control

S=C(Nc1ccc(Cl)cc1)Nc1ccc(Cc2ccc(NC(=S)Nc3ccc(Cl)cc3)cc2)cc1
inactive: [1] 113 % of control | [2] 106 % of control | [3] 92 % of control

CCC/C=C(\C)CCCC
inactive: [5] 97 % of control | [6] 99 % of control | [7] 95 % of control

Cc1cccc(CC(O)(CC(O)(c2ccccc2)c2ccccc2)c2ccccc2)c1 (stereo not given)
inactive: [15] 96 % of control | [16] 98 % of control | dose: 400.0 mg/kg/injection, schedule: Q04DX003 (ip), vehicle: acetone 97 % of control

O=C(O)c1ccccc1C(=O)OC1CC2CCC1C2 (stereo not given)
inactive: dose: 100.0 mg/kg/injection, schedule: Q01DX001 (ip), vehicle: Klucel (hydroxypropylcellulose) (HPC) 100 % of control | dose: 200.0 mg/kg/injection, schedule: Q01DX001 (ip), vehicle: Klucel (hydroxypropylcellulose) (HPC) 94 % of control | dose: 400.0 mg/kg/injection, schedule: Q01DX001 (ip), vehicle: Klucel (hydroxypropylcellulose) (HPC) 98 % of control

COC(=O)c1ccccc1NCCCC(=O)O
inactive: [17] 97 % of control | [9] 103 % of control | [10] 97 % of control | [11] 97 % of control | [12] 102 % of control | [13] 98 % of control

CC(C)(C)C(=O)OCn1cnc(C#N)c1[N+](=O)[O-]
inactive: dose: 100.0 mg/kg/injection, schedule: Q01DX001 (ip), vehicle: acetone 92 % of control | dose: 200.0 mg/kg/injection, schedule: Q01DX001 (ip), vehicle: acetone 101 % of control | dose: 400.0 mg/kg/injection, schedule: Q01DX001 (ip), vehicle: acetone 92 % of control

C/C(=N\O)c1ccc2ccc3ccccc3c2c1
inactive: dose: 100.0 mg/kg/injection, schedule: Q01DX009 (ip), vehicle: saline sonified 105 % of control | [17] 101 % of control | dose: 100.0 mg/kg/injection, schedule: Q04DX003 (ip), vehicle: Klucel (hydroxypropylcellulose) (HPC) 103 % of control | dose: 200.0 mg/kg/injection, schedule: Q01DX009 (ip), vehicle: saline sonified 93 % of control | [10] 93 % of control | dose: 200.0 mg/kg/injection, schedule: Q04DX003 (ip), vehicle: Klucel (hydroxypropylcellulose) (HPC) 103 % of control | dose: 400.0 mg/kg/injection, schedule: Q01DX009 (ip), vehicle: saline sonified 94 % of control | [12] 95 % of control | dose: 400.0 mg/kg/injection, schedule: Q04DX003 (ip), vehicle: Klucel (hydroxypropylcellulose) (HPC) 115 % of control

S=P(CP(c1ccccc1)c1ccccc1)(c1ccccc1)c1ccccc1
inactive: dose: 100.0 mg/kg/injection, schedule: Q04DX002 (sc), vehicle: olive oil, sesame oil, peanut oil 100 % of control | dose: 200.0 mg/kg/injection, schedule: Q04DX002 (sc), vehicle: olive oil, sesame oil, peanut oil 107 % of control | dose: 400.0 mg/kg/injection, schedule: Q04DX002 (sc), vehicle: olive oil, sesame oil, peanut oil 104 % of control

CC(C)(Cl)N=Nc1ccc([N+](=O)[O-])cc1[N+](=O)[O-]
inactive: [9] 96 % of control | [11] 98 % of control | [13] 88 % of control

CCOC(=O)CCC1(C(=O)OC)C(=O)CCCCC/C=C/1C(=O)OC (stereo not given)
inactive: [9] 99 % of control | [11] 101 % of control | [13] 106 % of control

C1C2OC2CC2OC12 (stereo not given)
inactive: [17] 95 % of control | [10] 96 % of control | [12] 95 % of control

CCOC(=O)Cc1nc2ccc(C)cc2[nH]1
inactive: [1] 100 % of control | [2] 100 % of control | [3] 115 % of control

Cc1ccc(S(=O)(=O)N(C)C)cc1N
inactive: [8] 105 % of control | [17] 98 % of control | [9] 107 % of control | [10] 96 % of control | [11] 97 % of control | [13] 102 % of control

C[n+]1cccc(C(=O)O)c1
inactive: dose: 50.0 mg/kg/injection, schedule: Q01DX001 (ip), vehicle: carboxymethylcellulose (CMC) 95 % of control | [18] 95 % of control | [19] 98 % of control

CCCCCCCCCCCCCCCCSCCCCCCCCCCCCCCCC
inactive: [17] 104 % of control | [10] 98 % of control

Nc1ncnc(N)c1NC(=O)/C=C/c1ccccc1
inactive: [20] 116 % of control | [21] 101 % of control

CC1(C)OC(C(O)COC(=O)c2ccc([N+](=O)[O-])cc2)C(C(SCc2ccccc2)SCc2ccccc2)O1 (stereo not given)
inactive: [18] 93 % of control | [19] 89 % of control | dose: 400.0 mg/kg/injection, schedule: Q01DX001 (ip), vehicle: carboxymethylcellulose (CMC) 95 % of control

CCC/C=C(/C=O)CC
inactive: [20] 100 % of control | [21] 96 % of control | dose: 400.0 mg/kg/injection, schedule: Q01DX001 (ip), vehicle: saline with Tween-80 96 % of control
